Reference: the NIST ThermoML archive (doi:10.1021/acs.jced.5b00662)
Several values for one entry are separate records, joined by “and”; a condition that tells them apart may be missing. Identical values can stand only once. Numbers after ± are expanded uncertainties.

Settings: 308.15 K; 101.33 kPa; Liquid; Vibrating tube method

mass density | SMILES
928.8 ± 1.1 kg/m3 and 930.2 ± 1.1 kg/m3 | COCCOCCOC [2,5,8-trioxanonane]
1104.1 ± 1 kg/m3 | OCCO [1,2-ethanediol]

SMILES | mass density
OCCOCCO [diethylene glycol] | 1105.5 ± 2 kg/m3 and 1107 ± 2 kg/m3

Same assay, conditions: 313.15 K; 101.33 kPa; Liquid; Concentric cylinders viscometry

SMILES | viscosity [mPa·s]
COCCOCCOCCOCCOC [2,5,8,11,14-pentaoxapentadecane] | 2.389 ± 0.097
COCCOCCO [2-(2-methoxyethoxy)ethanol] | 2.373 ± 0.096
OCCO [1,2-ethanediol] | 9.627 ± 0.39
OCCOCCO [diethylene glycol] | 14.85 ± 0.6

Other lines, results leading:

viscosity [mPa·s] | SMILES
1.439 ± 0.059 | COCCOCCOCCOC [2,5,8,11-tetraoxadodecane]
0.825 ± 0.034 | COCCOCCOC [2,5,8-trioxanonane]

Same assay, conditions: 313.15 K; 101.33 kPa; Liquid; Sing-around technique in a fixed-path interferometer

SMILES | speed of sound [m/s]
COCCOCCOCCOCCOC [2,5,8,11,14-pentaoxapentadecane] | 1325.6 ± 1.5
COCCOCCO [2-(2-methoxyethoxy)ethanol] | 1363.9 ± 1.5
OCCO [1,2-ethanediol] | 1619.3 ± 1.3
OCCOCCO [diethylene glycol] | 1542.8 ± 1.6

Continued, values first:

speed of sound [m/s] | SMILES
1284.4 ± 1.5 | COCCOCCOCCOC [2,5,8,11-tetraoxadodecane]
1220.6 ± 2 | COCCOCCOC [2,5,8-trioxanonane]

Same assay, conditions: 313.15 K; 101.33 kPa; Liquid; Vibrating tube method

SMILES | mass density
COCCOCCOCCOCCOC [2,5,8,11,14-pentaoxapentadecane] | 993 ± 2 kg/m3 and 994.1 ± 2 kg/m3
COCCOCCO [2-(2-methoxyethoxy)ethanol] | 1002.1 ± 2 kg/m3 and 1003 ± 2 kg/m3
OCCO [1,2-ethanediol] | 1099.2 ± 1 kg/m3 and 1100.5 ± 1 kg/m3
OCCOCCO [diethylene glycol] | 1101.9 ± 2 kg/m3 and 1103.4 ± 2 kg/m3

Other lines, results leading:

mass density | SMILES
965.6 ± 2 kg/m3 and 967.2 ± 2 kg/m3 | COCCOCCOCCOC [2,5,8,11-tetraoxadodecane]
923.8 ± 1.1 kg/m3 and 925.2 ± 1.1 kg/m3 | COCCOCCOC [2,5,8-trioxanonane]

Same assay, conditions: 318.15 K; 101.33 kPa; Liquid; Concentric cylinders viscometry

SMILES | viscosity [mPa·s]
COCCOCCOCCOCCOC [2,5,8,11,14-pentaoxapentadecane] | 2.183 ± 0.089
COCCOCCO [2-(2-methoxyethoxy)ethanol] | 2.148 ± 0.087
OCCO [1,2-ethanediol] | 8.182 ± 0.33
OCCOCCO [diethylene glycol] | 12.4 ± 0.5

Further lines, results first:

viscosity [mPa·s] | SMILES
1.373 ± 0.056 | COCCOCCOCCOC [2,5,8,11-tetraoxadodecane]
0.767 ± 0.032 | COCCOCCOC [2,5,8-trioxanonane]

Same assay, conditions: 318.15 K; 101.33 kPa; Liquid; Vibrating tube method

SMILES | mass density [kg/m3]
COCCOCCOCCOCCOC [2,5,8,11,14-pentaoxapentadecane] | 989.5 ± 2
COCCOCCO [2-(2-methoxyethoxy)ethanol] | 998.8 ± 2
OCCO [1,2-ethanediol] | 1097 ± 1
OCCOCCO [diethylene glycol] | 1099.7 ± 2

Next, values leading:

mass density [kg/m3] | SMILES
962.4 ± 2 | COCCOCCOCCOC [2,5,8,11-tetraoxadodecane]
920.2 ± 1.1 | COCCOCCOC [2,5,8-trioxanonane]

Same assay, conditions: 323.15 K; 101.33 kPa; Liquid; Concentric cylinders viscometry

SMILES | viscosity [mPa·s]
COCCOCCOCCOCCOC [2,5,8,11,14-pentaoxapentadecane] | 1.995 ± 0.081
COCCOCCO [2-(2-methoxyethoxy)ethanol] | 1.946 ± 0.079
OCCO [1,2-ethanediol] | 6.98 ± 0.28
OCCOCCO [diethylene glycol] | 10.42 ± 0.42

Other lines, results leading:

viscosity [mPa·s] | SMILES
1.27 ± 0.052 | COCCOCCOCCOC [2,5,8,11-tetraoxadodecane]
0.718 ± 0.03 | COCCOCCOC [2,5,8-trioxanonane]

Same assay, conditions: 323.15 K; 101.33 kPa; Liquid; Sing-around technique in a fixed-path interferometer

SMILES | speed of sound [m/s]
COCCOCCOCCOCCOC [2,5,8,11,14-pentaoxapentadecane] | 1289.1 ± 1.5
COCCOCCO [2-(2-methoxyethoxy)ethanol] | 1329.7 ± 1.5
OCCO [1,2-ethanediol] | 1595.5 ± 1.3
OCCOCCO [diethylene glycol] | 1518.8 ± 1.6

Now from value to compound:

speed of sound [m/s] | SMILES
1246.9 ± 1.5 | COCCOCCOCCOC [2,5,8,11-tetraoxadodecane]
1181.7 ± 2 | COCCOCCOC [2,5,8-trioxanonane]

Same assay, conditions: 323.15 K; 101.33 kPa; Liquid; Vibrating tube method

SMILES | mass density
COCCOCCOCCOCCOC [2,5,8,11,14-pentaoxapentadecane] | 983.7 ± 2 kg/m3 and 984.9 ± 2 kg/m3
COCCOCCO [2-(2-methoxyethoxy)ethanol] | 993.2 ± 2 kg/m3 and 994.3 ± 2 kg/m3
OCCO [1,2-ethanediol] | 1092.1 ± 1 kg/m3 and 1093.4 ± 1 kg/m3
OCCOCCO [diethylene glycol] | 1094.7 ± 2 kg/m3 and 1096.1 ± 2 kg/m3

Second part, the compound after the results:

mass density | SMILES
956.1 ± 2 kg/m3 and 957.7 ± 2 kg/m3 | COCCOCCOCCOC [2,5,8,11-tetraoxadodecane]
913.7 ± 1.1 kg/m3 and 915.2 ± 1.1 kg/m3 | COCCOCCOC [2,5,8-trioxanonane]

Same assay, conditions: 328.15 K; 101.33 kPa; Liquid; Concentric cylinders viscometry

SMILES | viscosity [mPa·s]
COCCOCCOCCOCCOC [2,5,8,11,14-pentaoxapentadecane] | 1.832 ± 0.074
COCCOCCO [2-(2-methoxyethoxy)ethanol] | 1.772 ± 0.072
OCCO [1,2-ethanediol] | 6.007 ± 0.24
OCCOCCO [diethylene glycol] | 8.849 ± 0.36

Results, then the compound that gave them:

viscosity [mPa·s] | SMILES
1.179 ± 0.048 | COCCOCCOCCOC [2,5,8,11-tetraoxadodecane]
0.674 ± 0.028 | COCCOCCOC [2,5,8-trioxanonane]

Same assay, conditions: 328.15 K; 101.33 kPa; Liquid; Vibrating tube method

SMILES | mass density [kg/m3]
COCCOCCOCCOCCOC [2,5,8,11,14-pentaoxapentadecane] | 980.2 ± 2
COCCOCCO [2-(2-methoxyethoxy)ethanol] | 989.8 ± 2
OCCO [1,2-ethanediol] | 1089.8 ± 1
OCCOCCO [diethylene glycol] | 1092.5 ± 2

Results, then the compound that gave them:

mass density [kg/m3] | SMILES
952.9 ± 2 | COCCOCCOCCOC [2,5,8,11-tetraoxadodecane]
910.1 ± 1.1 | COCCOCCOC [2,5,8-trioxanonane]

Same assay, conditions: 333.15 K; 101.33 kPa; Liquid; Concentric cylinders viscometry

SMILES | viscosity [mPa·s]
COCCOCCOCCOCCOC [2,5,8,11,14-pentaoxapentadecane] | 1.677 ± 0.068
COCCOCCO [2-(2-methoxyethoxy)ethanol] | 1.606 ± 0.065
OCCO [1,2-ethanediol] | 5.197 ± 0.21
OCCOCCO [diethylene glycol] | 7.57 ± 0.31

The next lines start with the values.

viscosity [mPa·s] | SMILES
1.064 ± 0.043 | COCCOCCOCCOC [2,5,8,11-tetraoxadodecane]
0.633 ± 0.026 | COCCOCCOC [2,5,8-trioxanonane]

Same assay, conditions: 333.15 K; 101.33 kPa; Liquid; Sing-around technique in a fixed-path interferometer

SMILES | speed of sound [m/s]
COCCOCCOCCOCCOC [2,5,8,11,14-pentaoxapentadecane] | 1253.4 ± 1.5
COCCOCCO [2-(2-methoxyethoxy)ethanol] | 1296.1 ± 1.5
OCCO [1,2-ethanediol] | 1571.5 ± 1.3
OCCOCCO [diethylene glycol] | 1494.5 ± 1.6

Next, values leading:

speed of sound [m/s] | SMILES
1209.9 ± 1.5 | COCCOCCOCCOC [2,5,8,11-tetraoxadodecane]
1143.4 ± 2 | COCCOCCOC [2,5,8-trioxanonane]

Same assay, conditions: 333.15 K; 101.33 kPa; Liquid; Vibrating tube method

SMILES | mass density
COCCOCCOCCOCCOC [2,5,8,11,14-pentaoxapentadecane] | 974.5 ± 2 kg/m3 and 975.6 ± 2 kg/m3
COCCOCCO [2-(2-methoxyethoxy)ethanol] | 984.1 ± 2 kg/m3 and 985.3 ± 2 kg/m3
OCCO [1,2-ethanediol] | 1084.8 ± 1 kg/m3 and 1086.2 ± 1 kg/m3
OCCOCCO [diethylene glycol] | 1087.4 ± 2 kg/m3 and 1088.8 ± 2 kg/m3

Continued, values first:

mass density | SMILES
946.5 ± 2 kg/m3 and 948.1 ± 2 kg/m3 | COCCOCCOCCOC [2,5,8,11-tetraoxadodecane]
903.6 ± 1.1 kg/m3 and 905 ± 1.1 kg/m3 | COCCOCCOC [2,5,8-trioxanonane]

Same assay, conditions: 338.15 K; 101.33 kPa; Liquid; Concentric cylinders viscometry

SMILES | viscosity [mPa·s]
COCCOCCOCCOCCOC [2,5,8,11,14-pentaoxapentadecane] | 1.566 ± 0.064
COCCOCCO [2-(2-methoxyethoxy)ethanol] | 1.489 ± 0.061
OCCO [1,2-ethanediol] | 4.555 ± 0.18
OCCOCCO [diethylene glycol] | 6.561 ± 0.27

Second part, the compound after the results:

viscosity [mPa·s] | SMILES
1.026 ± 0.042 | COCCOCCOCCOC [2,5,8,11-tetraoxadodecane]
0.599 ± 0.025 | COCCOCCOC [2,5,8-trioxanonane]

Same assay, conditions: 338.15 K; 101.33 kPa; Liquid; Vibrating tube method

SMILES | mass density [kg/m3]
COCCOCCOCCOCCOC [2,5,8,11,14-pentaoxapentadecane] | 971 ± 2
COCCOCCO [2-(2-methoxyethoxy)ethanol] | 981 ± 2
OCCO [1,2-ethanediol] | 1082.6 ± 1
OCCOCCO [diethylene glycol] | 1085.2 ± 2

Other lines, results leading:

mass density [kg/m3] | SMILES
943.3 ± 2 | COCCOCCOCCOC [2,5,8,11-tetraoxadodecane]
899.9 ± 1.1 | COCCOCCOC [2,5,8-trioxanonane]

Same assay, conditions: 343.15 K; 101.33 kPa; Liquid; Concentric cylinders viscometry

SMILES | viscosity [mPa·s]
COCCOCCOCCOCCOC [2,5,8,11,14-pentaoxapentadecane] | 1.456 ± 0.059
COCCOCCO [2-(2-methoxyethoxy)ethanol] | 1.372 ± 0.056
OCCO [1,2-ethanediol] | 4.01 ± 0.16
OCCOCCO [diethylene glycol] | 5.718 ± 0.23

Second part, the compound after the results:

viscosity [mPa·s] | SMILES
0.962 ± 0.039 | COCCOCCOCCOC [2,5,8,11-tetraoxadodecane]
0.566 ± 0.024 | COCCOCCOC [2,5,8-trioxanonane]
